# In ChEMBL document CHEMBL5131375, “Recent Developments in the Use of Kinase Inhibitors for Management of Viral Infections” (J Med Chem, 2022):
# What was measured:
# in vitro [1] = conditions: human, pbl
# Measles morbillivirus = assay type: functional
# [2] = target: Receptor tyrosine-protein kinase erbB-2 (Homo sapiens, UniProt P04626)
# Dengue virus [3] = test: microbe, parasite or virus in culture
# Huh7.5.1 = test: Cytotoxicity against human Huh-7.5.1 cells at 0.9 uM; assay type: toxicity, cell-based; conditions: huh7.5.1, 0.9 µM
# in vitro [4] = conditions: human, Huh-7 cells
# Influenza A virus [5] = test: microbe, parasite or virus in culture; assay type: functional, organism-based
# [6] = target: Epidermal growth factor receptor (Homo sapiens, UniProt P00533)
# Chain of Epidermal growth factor receptor (P00533 whole entry): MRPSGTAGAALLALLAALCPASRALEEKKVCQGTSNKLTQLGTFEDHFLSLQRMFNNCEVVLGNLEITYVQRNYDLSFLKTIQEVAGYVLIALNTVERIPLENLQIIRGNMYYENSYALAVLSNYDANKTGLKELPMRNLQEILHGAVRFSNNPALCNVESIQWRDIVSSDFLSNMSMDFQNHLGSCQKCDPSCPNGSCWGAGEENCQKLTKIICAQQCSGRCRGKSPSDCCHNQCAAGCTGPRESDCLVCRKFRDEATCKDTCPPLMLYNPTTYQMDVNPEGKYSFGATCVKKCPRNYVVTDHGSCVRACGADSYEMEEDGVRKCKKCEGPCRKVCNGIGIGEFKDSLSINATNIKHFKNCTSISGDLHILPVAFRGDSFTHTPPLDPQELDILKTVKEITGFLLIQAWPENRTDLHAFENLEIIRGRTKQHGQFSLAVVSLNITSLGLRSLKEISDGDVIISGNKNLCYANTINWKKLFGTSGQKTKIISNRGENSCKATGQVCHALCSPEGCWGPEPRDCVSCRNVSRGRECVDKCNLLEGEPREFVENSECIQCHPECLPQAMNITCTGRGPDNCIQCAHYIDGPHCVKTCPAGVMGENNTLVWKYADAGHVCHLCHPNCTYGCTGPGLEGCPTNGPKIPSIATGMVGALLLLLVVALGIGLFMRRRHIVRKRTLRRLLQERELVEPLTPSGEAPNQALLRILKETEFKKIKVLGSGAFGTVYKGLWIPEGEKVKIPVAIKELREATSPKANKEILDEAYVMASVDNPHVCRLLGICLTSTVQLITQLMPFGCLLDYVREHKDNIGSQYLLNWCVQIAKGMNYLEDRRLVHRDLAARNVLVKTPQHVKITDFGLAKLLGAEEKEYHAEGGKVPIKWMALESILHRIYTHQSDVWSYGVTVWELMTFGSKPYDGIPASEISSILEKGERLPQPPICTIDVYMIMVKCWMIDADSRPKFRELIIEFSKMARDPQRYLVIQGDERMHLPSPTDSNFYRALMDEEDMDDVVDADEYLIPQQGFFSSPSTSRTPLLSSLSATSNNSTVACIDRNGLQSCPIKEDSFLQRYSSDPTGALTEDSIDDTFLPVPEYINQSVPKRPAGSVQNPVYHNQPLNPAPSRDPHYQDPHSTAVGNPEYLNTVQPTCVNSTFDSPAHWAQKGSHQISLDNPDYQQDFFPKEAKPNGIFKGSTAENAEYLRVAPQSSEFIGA
# Hepatitis C virus = test: microbe, parasite or virus in culture
# in vitro [7] = conditions: dog
# [8] = target: Phosphatidylinositol 4-phosphate 3-kinase C2 domain-containing subunit beta (Homo sapiens, UniProt O00750); test: Inhibition of PIK3C2beta (unknown origin)
# Chain of Phosphatidylinositol 4-phosphate 3-kinase C2 domain-containing subunit beta (O00750 whole entry, the tested form may be a part): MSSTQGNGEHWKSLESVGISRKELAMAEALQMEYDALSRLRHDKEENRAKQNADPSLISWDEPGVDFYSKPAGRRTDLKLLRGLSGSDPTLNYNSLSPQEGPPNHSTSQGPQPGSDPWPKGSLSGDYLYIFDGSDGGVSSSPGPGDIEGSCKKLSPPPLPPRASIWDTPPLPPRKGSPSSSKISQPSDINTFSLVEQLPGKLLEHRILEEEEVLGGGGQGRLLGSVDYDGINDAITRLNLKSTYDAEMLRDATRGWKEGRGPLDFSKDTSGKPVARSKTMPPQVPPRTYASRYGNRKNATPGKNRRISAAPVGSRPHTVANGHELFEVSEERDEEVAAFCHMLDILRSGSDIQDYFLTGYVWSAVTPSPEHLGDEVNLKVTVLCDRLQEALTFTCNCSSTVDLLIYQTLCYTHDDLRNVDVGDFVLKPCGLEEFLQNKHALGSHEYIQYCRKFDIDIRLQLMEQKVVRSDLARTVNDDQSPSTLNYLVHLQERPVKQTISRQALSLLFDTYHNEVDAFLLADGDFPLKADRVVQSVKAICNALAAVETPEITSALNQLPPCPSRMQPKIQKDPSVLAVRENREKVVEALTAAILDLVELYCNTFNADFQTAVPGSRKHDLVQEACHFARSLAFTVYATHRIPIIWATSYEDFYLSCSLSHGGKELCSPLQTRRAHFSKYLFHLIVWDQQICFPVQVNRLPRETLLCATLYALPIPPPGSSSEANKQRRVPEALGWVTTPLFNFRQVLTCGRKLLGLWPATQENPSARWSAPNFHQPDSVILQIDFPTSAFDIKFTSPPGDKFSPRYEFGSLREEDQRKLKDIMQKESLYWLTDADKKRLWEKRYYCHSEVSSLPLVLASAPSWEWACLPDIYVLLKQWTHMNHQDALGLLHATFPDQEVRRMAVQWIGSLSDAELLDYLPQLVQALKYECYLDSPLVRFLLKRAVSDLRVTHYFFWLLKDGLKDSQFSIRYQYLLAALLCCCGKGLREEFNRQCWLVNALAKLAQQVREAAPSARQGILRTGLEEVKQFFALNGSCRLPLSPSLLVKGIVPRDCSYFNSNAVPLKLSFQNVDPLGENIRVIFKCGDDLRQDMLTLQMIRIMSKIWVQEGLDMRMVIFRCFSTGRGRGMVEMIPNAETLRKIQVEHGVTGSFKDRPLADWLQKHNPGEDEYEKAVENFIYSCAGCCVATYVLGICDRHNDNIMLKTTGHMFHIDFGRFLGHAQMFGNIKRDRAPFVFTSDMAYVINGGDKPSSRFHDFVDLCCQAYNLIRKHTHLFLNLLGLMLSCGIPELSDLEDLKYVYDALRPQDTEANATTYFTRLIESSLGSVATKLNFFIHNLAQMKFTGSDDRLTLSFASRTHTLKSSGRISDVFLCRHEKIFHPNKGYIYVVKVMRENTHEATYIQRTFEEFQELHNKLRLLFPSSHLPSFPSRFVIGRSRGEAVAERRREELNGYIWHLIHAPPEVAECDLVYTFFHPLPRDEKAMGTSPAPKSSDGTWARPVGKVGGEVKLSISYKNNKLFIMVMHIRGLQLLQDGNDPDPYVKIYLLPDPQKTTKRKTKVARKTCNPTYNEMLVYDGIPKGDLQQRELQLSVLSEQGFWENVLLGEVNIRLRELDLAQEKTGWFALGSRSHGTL
# Human rhinovirus sp. = test: Antiviral activity against RV; assay type: functional, organism-based, Enterovirus
# [9] = Cytotoxicity against human A549 cells; assay type: toxicity, cell-based
# Influenza B virus = test: Antiviral activity against influenza B virus; assay type: functional, organism-based
# [10] = Cytotoxicity against human CEM-T4 cells; assay type: toxicity, cell-based
# [11] = test system: Human immunodeficiency virus 1; test: Antiviral activity against HIV-1 assessed as inhibition of Nef mediated replication; assay type: functional, organism-based
# Influenza A virus [12] = test: microbe, parasite or virus in culture; conditions: GSB H5N1
# Influenza A virus [13] = test: microbe, parasite or virus in culture; conditions: FPV H7N7
# Influenza A virus [14] = test: microbe, parasite or virus in culture; conditions: H7N7
# Influenza A virus [15] = test: microbe, parasite or virus in culture; conditions: A/FPV/Bratislava/79 (H7N7), MDCK-II
# Influenza A virus [16] = test: microbe, parasite or virus in culture; conditions: MB1 H5N1
# Influenza A virus [17] = test: microbe, parasite or virus in culture; conditions: H1N1v, A549
# Influenza A virus [18] = test: microbe, parasite or virus in culture; conditions: RB1 H1N1
# Influenza A virus [19] = test: microbe, parasite or virus in culture; conditions: Lung, 24 h
# Focal adhesion kinase 1 = Focal adhesion kinase 1 (Homo sapiens, UniProt Q05397); test: Inhibition of FAK (unknown origin)
# Chain of Focal adhesion kinase 1 (Q05397 whole entry): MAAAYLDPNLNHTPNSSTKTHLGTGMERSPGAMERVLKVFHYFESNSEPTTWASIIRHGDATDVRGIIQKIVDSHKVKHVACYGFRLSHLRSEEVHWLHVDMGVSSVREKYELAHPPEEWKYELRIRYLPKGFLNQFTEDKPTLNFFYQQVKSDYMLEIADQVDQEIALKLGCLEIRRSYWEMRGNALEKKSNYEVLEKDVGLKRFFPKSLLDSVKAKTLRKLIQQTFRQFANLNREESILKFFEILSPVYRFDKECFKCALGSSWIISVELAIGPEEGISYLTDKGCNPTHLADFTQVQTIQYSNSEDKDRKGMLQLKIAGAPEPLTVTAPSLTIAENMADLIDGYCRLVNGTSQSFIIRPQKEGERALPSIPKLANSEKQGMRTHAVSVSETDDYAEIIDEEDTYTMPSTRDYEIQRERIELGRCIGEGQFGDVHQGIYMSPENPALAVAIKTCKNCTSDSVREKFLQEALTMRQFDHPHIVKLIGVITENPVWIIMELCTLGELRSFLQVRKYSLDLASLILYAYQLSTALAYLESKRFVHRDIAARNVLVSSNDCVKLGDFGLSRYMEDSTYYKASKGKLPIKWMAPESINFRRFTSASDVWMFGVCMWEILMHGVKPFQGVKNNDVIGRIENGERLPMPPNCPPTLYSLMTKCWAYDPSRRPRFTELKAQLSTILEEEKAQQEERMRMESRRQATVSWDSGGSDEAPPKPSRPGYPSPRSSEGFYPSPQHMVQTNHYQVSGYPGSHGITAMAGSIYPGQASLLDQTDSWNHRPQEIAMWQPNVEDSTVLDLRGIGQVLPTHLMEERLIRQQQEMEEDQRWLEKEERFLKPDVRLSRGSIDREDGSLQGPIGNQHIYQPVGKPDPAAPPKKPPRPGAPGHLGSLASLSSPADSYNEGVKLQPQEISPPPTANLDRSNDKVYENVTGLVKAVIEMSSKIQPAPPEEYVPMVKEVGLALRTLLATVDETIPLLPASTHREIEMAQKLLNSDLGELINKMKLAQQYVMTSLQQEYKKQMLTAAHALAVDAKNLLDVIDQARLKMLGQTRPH
# [20] = Cytotoxicity against human NCI-H1650 cells; assay type: toxicity, cell-based
# [21] = Cytotoxicity against human NCI-H358 cells; assay type: toxicity, cell-based
# [22] = Cytotoxicity against MDDC cells (unknown origin); assay type: toxicity, cell-based
# [23] = Cytotoxicity against HMC3 cells; assay type: toxicity, cell-based; conditions: human
# [24] = target: Calcium/calmodulin-dependent protein kinase type II subunit gamma (Homo sapiens, UniProt Q13555); test: Inhibition of CAMK-II (unknown origin)
# Chain of Calcium/calmodulin-dependent protein kinase type II subunit gamma (Q13555 whole entry): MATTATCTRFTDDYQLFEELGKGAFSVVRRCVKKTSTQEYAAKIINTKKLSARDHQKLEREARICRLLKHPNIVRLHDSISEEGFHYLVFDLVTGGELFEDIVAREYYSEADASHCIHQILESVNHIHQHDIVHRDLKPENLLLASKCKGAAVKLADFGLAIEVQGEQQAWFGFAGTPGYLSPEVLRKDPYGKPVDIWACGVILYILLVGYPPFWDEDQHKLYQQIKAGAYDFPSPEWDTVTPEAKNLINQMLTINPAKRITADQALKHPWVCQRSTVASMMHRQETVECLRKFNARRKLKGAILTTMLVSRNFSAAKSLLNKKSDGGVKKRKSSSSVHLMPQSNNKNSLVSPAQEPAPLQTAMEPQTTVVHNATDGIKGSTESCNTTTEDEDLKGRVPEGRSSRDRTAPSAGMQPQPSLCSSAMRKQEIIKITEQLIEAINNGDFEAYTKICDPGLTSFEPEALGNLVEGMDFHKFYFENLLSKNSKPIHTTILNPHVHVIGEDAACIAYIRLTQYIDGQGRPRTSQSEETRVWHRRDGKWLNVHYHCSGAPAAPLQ
# [25] = target: T1, Cyclin-dependent kinase 7 (Homo sapiens, UniProt P50613)
# T1 sequence (P50613 whole entry): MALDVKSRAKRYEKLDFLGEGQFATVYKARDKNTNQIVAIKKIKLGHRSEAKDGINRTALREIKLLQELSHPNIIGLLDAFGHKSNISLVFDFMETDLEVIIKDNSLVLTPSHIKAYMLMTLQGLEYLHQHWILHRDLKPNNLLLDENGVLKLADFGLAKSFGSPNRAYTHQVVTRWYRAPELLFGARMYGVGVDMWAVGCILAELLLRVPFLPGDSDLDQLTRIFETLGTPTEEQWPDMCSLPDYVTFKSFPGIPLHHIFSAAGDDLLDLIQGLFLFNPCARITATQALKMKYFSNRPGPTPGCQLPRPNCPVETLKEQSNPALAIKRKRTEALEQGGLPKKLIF
# [26] = target: T1, Cyclin-dependent kinase 7; remark: listed apart in the source
# Human betaherpesvirus 5 = test: microbe, parasite or virus in culture; assay type: functional, organism-based
# in vitro [27] = conditions: human, hff
# [28] = Cytotoxicity against HEK293 cells; assay type: toxicity, cell-based; conditions: human
# Dengue virus [29] = test: Antiviral activity against DENV infected in HEK293 cells; assay type: functional, organism-based
smiles,measurement,setting,value
Oc1ccc(Nc2nc(-c3ccc(Cl)cc3)cs2)cc1,CC50,in vitro [1],> 5000 nM
same,inhibition (INH),Measles morbillivirus,70%
CCN(CC)CC1CCN(c2ncc3ncnc(Nc4ccc(F)c(Cl)c4)c3n2)CC1,IC50,[2],290 nM
same,IC50,Dengue virus [3],900 nM
same,Activity,Huh7.5.1,Non-Toxic
O=C(Cc1cccs1)Nc1cccc(-c2ccc3nnc(-c4cccnc4)n3n2)c1,CC50,in vitro [4],> 50000 nM
same,EC50,Influenza A virus [5],350 nM
same,IC50,[6],79 nM
same,EC50,Hepatitis C virus,760 nM
same,CC50,in vitro [7]; MDCK cells,> 50000 nM
same,IC50,[8],430 nM
same,EC50,Human rhinovirus sp.,50 nM
same,CC50,[9],> 50000 nM
same,EC50,Influenza B virus,400 nM
NC(=S)n1nc(-c2ccc([N+](=O)[O-])cc2)c(/N=N/c2cccc(Cl)c2)c1O,CC50,[10],> 10000 nM
same,IC50,[11],300 nM
N#CC(=C(/N)Sc1ccccc1N)/C(C#N)=C(\N)Sc1ccccc1N,EC50,Influenza A virus [12],36600 nM
same,EC50,Influenza A virus [13],82700 nM
same,IC50,Dengue virus [3],14200 nM
same,EC50,Influenza A virus [14],620000 nM
same,EC50,Influenza A virus [15],74700 nM
same,EC50,Influenza A virus [16],4430 nM
same,EC50,Influenza A virus [17],1200 nM
same,EC50,Influenza A virus [18],1210 nM
same,CC50,in vitro [7]; mdck,> 50000 nM
same,EC50,Influenza A virus [19],620000 nM
Nc1cc(N)c(N)cc1N,IC50,Focal adhesion kinase 1,1000 nM
same,CC50,[9],> 1000 nM
same,CC50,[20],> 1000 nM
same,CC50,[21],> 1000 nM
COc1cc(-c2cnc3c(N4C[C@@H](C)O[C@@H](C)C4)snc3c2)ccc1N,EC50,Dengue virus [3],3500 nM
same,CC50,[22],> 20000 nM
COc1ccc(S(=O)(=O)N(CCCC(=O)C2CCCCCC2)c2ccccc2)cc1,CC50,[23],> 12500 nM
same,IC50,[24],790 nM
CC(C)c1cnn2c(NCc3ccccc3-n3cccn3)nc(OC3CCCNC3)nc12 (stereo unspecified),IC50,[25],< 5 nM
same,IC50,[26],< 5 nM
same,EC50,Human betaherpesvirus 5,24 nM
same,CC50,in vitro [27],6200 nM
O=S(=O)(NCCNC/C=C/c1ccc(Br)cc1)c1cccc2cnccc12,IC50,Dengue virus [3],960 nM
same,CC50,[28],> 1000 nM
same,IC50,Dengue virus [29],900 nM
